Values joined by “and” are separate entries in the source; they are usually repeats but may differ in a detail not shown here. Identical values can stand only once. Results filed as inconclusive are left out.
System: MX-1 breast xenograft, nude mice, tumor weight T/C
Experiment: NCI In Vivo Anticancer Drug Screen. Data for tumor model Human Mammary Carcinoma MX-1 Xenograft (intrarenal inoculation) in NU/NU Swiss (nude) mice
Settings: endpoint: mean tumor weight change, higher = larger tumour
Method in brief: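 Read-out: treated (T) over vehicle control (C) ratio of survival or tumor size. Dosing in animals carrying the transplanted tumor.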

[1] = dose: 12.5 mg/kg/injection, schedule: Q01DX010 (sc), vehicle: Klucel (hydroxypropylcellulose) (HPC)
[2] = dose: 150.0 mg/kg/injection, schedule: Q04DX003 (sc), vehicle: Klucel (hydroxypropylcellulose) (HPC)
[3] = dose: 300.0 mg/kg/injection, schedule: Q04DX003 (sc), vehicle: Klucel (hydroxypropylcellulose) (HPC)
[4] = dose: 600.0 mg/kg/injection, schedule: Q04DX003 (sc), vehicle: Klucel (hydroxypropylcellulose) (HPC)
[5] = dose: 1200.0 mg/kg/injection, schedule: Q04DX003 (sc), vehicle: Klucel (hydroxypropylcellulose) (HPC)
[6] = dose: 2400.0 mg/kg/injection, schedule: Q04DX003 (sc), vehicle: Klucel (hydroxypropylcellulose) (HPC)
[7] = dose: 2.5 mg/kg/injection, schedule: Q04DX003 (sc), vehicle: saline
[8] = dose: 20.0 mg/kg/injection, schedule: Q04DX003 (sc), vehicle: saline
[9] = dose: 300.0 mg/kg/injection, schedule: Q04DX003 (sc), vehicle: saline with Tween-80
[10] = dose: 600.0 mg/kg/injection, schedule: Q04DX003 (sc), vehicle: saline with Tween-80
[11] = dose: 1200.0 mg/kg/injection, schedule: Q04DX003 (sc), vehicle: saline with Tween-80
[12] = dose: 2400.0 mg/kg/injection, schedule: Q04DX003 (sc), vehicle: saline with Tween-80

For `COc1ccc2[nH]c3ccc4cc[n+](CCN5CCC(C6CCN(CC[n+]7ccc8ccc9[nH]c%10ccc(OC)cc%10c9c8c7)CC6)CC5)cc4c3c2c1`, the T/C (dose: 200.0 mg/kg/injection, schedule: Q04DX003 (sc), vehicle: Klucel (hydroxypropylcellulose) (HPC)) was 108 % of control, the T/C (dose: 400.0 mg/kg/injection, schedule: Q04DX003 (sc), vehicle: Klucel (hydroxypropylcellulose) (HPC)) was 80 % of control and the T/C (dose: 800.0 mg/kg/injection, schedule: Q04DX003 (sc), vehicle: Klucel (hydroxypropylcellulose) (HPC)) was 99 % of control. The T/C (dose: 1600.0 mg/kg/injection, schedule: Q04DX003 (sc), vehicle: Klucel (hydroxypropylcellulose) (HPC)) was 80 % of control.

In the case of `ClCCCN1CCCCC1CCl` (configuration not stated), the T/C (dose: 12.5 mg/kg/injection, schedule: Q04DX003 (sc), vehicle: saline) is reported as 51 % of control, the T/C (dose: 25.0 mg/kg/injection, schedule: Q04DX003 (sc), vehicle: saline) is reported as 1 % of control and the T/C (dose: 50.0 mg/kg/injection, schedule: Q04DX003 (sc), vehicle: saline) is reported as 3 % of control.

For `CCCC(=O)OCc1cc(=O)n(C)c2c3c4c(cc12)c(C)cc(=O)n4CO3`, the T/C [1] was 170 % of control, the T/C (dose: 25.0 mg/kg/injection, schedule: Q01DX010 (sc), vehicle: Klucel (hydroxypropylcellulose) (HPC)) was 67 % of control and the T/C (dose: 50.0 mg/kg/injection, schedule: Q01DX010 (sc), vehicle: Klucel (hydroxypropylcellulose) (HPC)) was 20 % of control. For the same compound, the T/C (dose: 100.0 mg/kg/injection, schedule: Q01DX010 (sc), vehicle: Klucel (hydroxypropylcellulose) (HPC)) was 15 % of control, the T/C (dose: 200.0 mg/kg/injection, schedule: Q01DX010 (sc), vehicle: Klucel (hydroxypropylcellulose) (HPC)) was 87 % of control and the T/C (dose: 400.0 mg/kg/injection, schedule: Q01DX010 (sc), vehicle: Klucel (hydroxypropylcellulose) (HPC)) was 91 % of control. For the same compound, the T/C (dose: 800.0 mg/kg/injection, schedule: Q01DX010 (sc), vehicle: Klucel (hydroxypropylcellulose) (HPC)) was 72 % of control.

With `O=C1c2cccc3cc([N+](=O)[O-])cc(c23)C(=O)N1CCN1CCCC1` the T/C (dose: 18.0 mg/kg/injection, schedule: Q04DX003 (sc), vehicle: saline with Tween-80) was 120 % of control, the T/C (dose: 36.0 mg/kg/injection, schedule: Q04DX003 (sc), vehicle: saline with Tween-80) was 96 % of control and the T/C (dose: 72.0 mg/kg/injection, schedule: Q04DX003 (sc), vehicle: saline with Tween-80) was 85 % of control.

In the case of `CCNC(C)(C)C(SSS)c1ccco1` (configuration not stated), the T/C [2] is reported as 102 % of control, the T/C [3] is reported as 97 % of control and the T/C [4] is reported as 80 % of control. For the same compound, the T/C [5] was 86 % of control.

`COC1C(O)C(C)OC(OC2C(Oc3cccc4c(O)c5c(=O)oc6ccc(C)c7c(=O)oc(c34)c5c67)OC(C)C(O)C2O)C1O` (configuration not stated) was tested, and the T/C [3] was 90 % of control, the T/C [4] was 94 % of control and the T/C [5] was 70 % of control. For the same compound, the T/C [6] was 49 % of control.

`Nc1ncn(C2OC(CO)C(O)C2O)c(=O)n1` (configuration not stated) was tested, and the T/C (dose: 0.38 mg/kg/injection, schedule: Q01DX010 (sc), vehicle: saline) was 69 % of control, the T/C (dose: 0.75 mg/kg/injection, schedule: Q01DX010 (sc), vehicle: saline) was 58 % of control and 68 % of control and the T/C (dose: 1.5 mg/kg/injection, schedule: Q01DX010 (sc), vehicle: saline) was 25 % of control. The T/C [7] was 50 % of control, the T/C [8] was 6 % of control and 14 % of control and the T/C (dose: 150.0 mg/kg/injection, schedule: Q04DX003 (sc), vehicle: saline) was 8 % of control. The T/C (dose: 200.0 mg/kg/injection, schedule: Q04DX003 (sc), vehicle: saline) was 52 % of control, the T/C (dose: 200.0 mg/kg/injection, schedule: Q04DX003 (sc), vehicle: suspension in saline) was 5 % of control and 7 % of control and the T/C (dose: 300.0 mg/kg/injection, schedule: Q04DX003 (sc), vehicle: saline) was 7 % of control. The T/C (dose: 400.0 mg/kg/injection, schedule: Q04DX003 (sc), vehicle: saline) was 15 % of control, the T/C (dose: 600.0 mg/kg/injection, schedule: Q04DX003 (sc), vehicle: saline) was 2 % of control and the T/C (dose: 800.0 mg/kg/injection, schedule: Q04DX003 (sc), vehicle: saline) was 5 % of control. The T/C (dose: 1200.0 mg/kg/injection, schedule: Q04DX003 (sc), vehicle: saline) was -29 % of control, the T/C (dose: 1600.0 mg/kg/injection, schedule: Q04DX003 (sc), vehicle: saline) was 2 % of control and the T/C (dose: 1600.0 mg/kg/injection, schedule: Q04DX003 (sc), vehicle: suspension in saline) was 15 % of control.

For `Nc1ccc2ccc(NS(=O)(=O)N3CCCCC3)cc2c1`, the T/C (dose: 150.0 mg/kg/injection, schedule: Q04DX003 (ip), vehicle: saline with Tween-80) was 110 % of control, the T/C (dose: 300.0 mg/kg/injection, schedule: Q04DX003 (ip), vehicle: saline with Tween-80) was 72 % of control and the T/C (dose: 600.0 mg/kg/injection, schedule: Q04DX003 (ip), vehicle: saline with Tween-80) was 86 % of control. The T/C (dose: 1200.0 mg/kg/injection, schedule: Q04DX003 (ip), vehicle: saline with Tween-80) was 92 % of control.

`COc1ccc(-c2csc(=[N+]3CCCCC3)s2)cc1` was tested, and the T/C (dose: 3.12 mg/kg/injection, schedule: Q04DX003 (sc), vehicle: water) was 89 % of control, the T/C (dose: 6.25 mg/kg/injection, schedule: Q04DX003 (sc), vehicle: water) was 85 % of control and the T/C (dose: 12.5 mg/kg/injection, schedule: Q04DX003 (sc), vehicle: water) was 89 % of control.

For `COc1cccc2c1C(=O)c1c(O)c3c(c(O)c1C2=O)CC(O)(/C(C)=N/NC(=O)CCCCC(=O)N/N=C(\C)C1(O)Cc2c(O)c4c(c(O)c2C(OC2CC(N)C(O)C(C)O2)C1)C(=O)c1c(OC)cccc1C4=O)CC3OC1CC(N)C(O)C(C)O1` (configuration not stated), the T/C (dose: 50.0 mg/kg/injection, schedule: Q04DX003 (sc), vehicle: water) was 62 % of control and the T/C (dose: 100.0 mg/kg/injection, schedule: Q04DX003 (sc), vehicle: water) was 2 % of control.

In the case of `CCN(CC)CCn1[nH]c2c3ccc(=O)cc3sc3c(NCCN)ccc1c32`, the T/C (dose: 6.25 mg/kg/injection, schedule: Q04DX003 (ip), vehicle: water) is reported as 73 % of control and the T/C (dose: 12.5 mg/kg/injection, schedule: Q04DX003 (ip), vehicle: water) is reported as 63 % of control.

`CCN(CC)CCCC(C)Nc1c2ccc(Cl)cc2nc2ccc(OC)cc12` (configuration not stated) was tested, and the T/C (dose: 50.0 mg/kg/injection, schedule: Q01DX010 (sc), vehicle: saline with Tween-80) was 158 % of control and the T/C (dose: 100.0 mg/kg/injection, schedule: Q01DX010 (sc), vehicle: saline with Tween-80) was 110 % of control.

For `CC(C)(C)N1CC1CNC(=O)C(=O)NCC1CN1C(C)(C)C` (configuration not stated), the T/C (dose: 50.0 mg/kg/injection, schedule: Q04DX003 (sc), vehicle: saline with Tween-80) was -41 % of control and -29 % of control.

With `ClC(Cl)(Cl)C1=NCc2nnn(Cc3ccccc3)c2N1` the T/C [9] was 92 % of control, the T/C [10] was 61 % of control and the T/C [11] was 66 % of control. For the same compound, the T/C [12] was 101 % of control.

In the case of `CCN1C=C/C(=C\C=C/c2cc[n+](CC)c3ccccc23)c2ccccc21`, the T/C (dose: 0.25 mg/kg/injection, schedule: Q01DX010 (sc), vehicle: saline) is reported as 111 % of control, the T/C (dose: 0.5 mg/kg/injection, schedule: Q01DX010 (sc), vehicle: saline) is reported as 173 % of control and the T/C (dose: 1.0 mg/kg/injection, schedule: Q01DX010 (sc), vehicle: saline) is reported as 82 % of control.

`O=C(O)c1ccc(C(=O)O)c(C(=O)O)c1.[NH-]C1CCCCC1[NH-].[Pt+2]` was tested, and the T/C (dose: 3.12 mg/kg/injection, schedule: Q01DX010 (sc), vehicle: sodium bicarbonate) was 10 % of control and 27 % of control and the T/C (dose: 6.25 mg/kg/injection, schedule: Q01DX010 (sc), vehicle: sodium bicarbonate) was 1 % of control and 2 % of control.

With `CC(C)CC(NC(=O)CF)C(=O)O` (configuration not stated) the T/C (dose: 10.0 mg/kg/injection, schedule: Q04DX003 (sc), vehicle: saline) was 92 % of control and the T/C [8] was 89 % of control.

For `O=C(Nc1nncs1)c1cccs1`, the T/C [9] was 98 % of control, the T/C [10] was 177 % of control and the T/C [11] was 115 % of control. For the same compound, the T/C [12] was 65 % of control.

For `CC1CCC(NC(=O)N(CCCl)N=O)CC1` (configuration not stated), the T/C (dose: 6.25 mg/kg/injection, schedule: Q01DX010 (sc), vehicle: Klucel (hydroxypropylcellulose) (HPC)) was 74 % of control and the T/C [1] was 78 % of control.

`C[n+]1c(-c2cccc(OCCOCCOc3cccc(-c4c5cc(N)ccc5c5ccc(N)cc5[n+]4C)c3)c2)c2cc(N)ccc2c2ccc(N)cc21` was tested, and the T/C (dose: 4.0 mg/kg/injection, schedule: Q04DX003 (sc), vehicle: water) was 92 % of control and the T/C (dose: 64.0 mg/kg/injection, schedule: Q04DX003 (sc), vehicle: water) was 73 % of control.

In the case of `CC1=CC(=Nc2ccc(N(CCCl)CCCl)cc2)C=C(C)C1=O`, the T/C [2] is reported as 34 % of control and the T/C [6] is reported as -89 % of control.

`NC(=O)c1[nH]nc(C2OC(CO)C(O)C2O)c1O` (configuration not stated) was tested, and the T/C [7] was 111 % of control and the T/C [8] was 68 % of control.

From PubChem BioAssay AID296 (DTP/NCI, 2004)
